Measured values from the supplement of paper PMC4932681.

Assays:
Assay in all cases: viability inhibition at highest dose (% inhibition); higher = more growth inhibition
T-47D = details: 72 h
Procedure, shortened: (§1)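 Breast cancer cell lines and their resistant derivatives were seeded into 384-well plates holding FO2Baq library drugs at five concentrations spanning a 10 000-fold range. Resistant lines were in medium with 1 μM of the selecting drug. Cells were incubated 72 h at 37 °C, and CellTiter-Glo viability was read on a PHERAstar and normalised to vehicle-only and positive controls. Drug sensitivity score, relative IC50 (curve midpoint) and top-dose inhibition came from logistic dose–response fits (Breeze pipeline).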

ZR-75-1 = details: 72 h
Procedure, shortened: as §1

T-47D Tam2 = details: 4-OH-tamoxifen in medium 1 µM; 72 h
Procedure, shortened: as §1

BT-474 Tam2 = details: 4-OH-tamoxifen in medium 1 µM; 72 h
Procedure, shortened: as §1

MCF-7 Tam1 = details: 4-OH-tamoxifen in medium 1 µM; 72 h
Procedure, shortened: as §1

T-47D Tam1 = details: 4-OH-tamoxifen in medium 1 µM; 72 h
Procedure, shortened: as §1

BT-474 = details: 72 h
Procedure, shortened: as §1

ZR-75-1 Tam1 = details: 4-OH-tamoxifen in medium 1 µM; 72 h
Procedure, shortened: as §1

BT-474 Tam1 = details: 4-OH-tamoxifen in medium 1 µM; 72 h
Procedure, shortened: as §1

ZR-75-1 Tam2 = details: 4-OH-tamoxifen in medium 1 µM; 72 h
Procedure, shortened: as §1

MCF-7 = details: 72 h
Procedure, shortened: as §1

Structure (SMILES) | viability inhibition at highest dose (T-47D; 4-OH-tamoxifen in medium 0 µM) | viability inhibition at highest dose (T-47D; 4-OH-tamoxifen in medium 1 µM) | viability inhibition at highest dose (ZR-75-1; 4-OH-tamoxifen in medium 0 µM) | viability inhibition at highest dose (ZR-75-1; 4-OH-tamoxifen in medium 1 µM) | viability inhibition at highest dose (T-47D Tam2) | viability inhibition at highest dose (BT-474 Tam2) | viability inhibition at highest dose (MCF-7 Tam1) | viability inhibition at highest dose (T-47D Tam1) | viability inhibition at highest dose (BT-474; 4-OH-tamoxifen in medium 0 µM) | viability inhibition at highest dose (BT-474; 4-OH-tamoxifen in medium 1 µM) | viability inhibition at highest dose (ZR-75-1 Tam1) | viability inhibition at highest dose (BT-474 Tam1) | viability inhibition at highest dose (ZR-75-1 Tam2) | viability inhibition at highest dose (MCF-7; 4-OH-tamoxifen in medium 0 µM) | viability inhibition at highest dose (MCF-7; 4-OH-tamoxifen in medium 1 µM)
CNC(=O)c1cc(Oc2ccc(NC(=O)Nc3ccc(Cl)c(C(F)(F)F)c3)c(F)c2)ccn1 [Regorafenib (BAY 73-4506)] (drug 10000 nM) | 29.1 | 18.2 | 17 | 18.3 | 16.3 | 76.2 | 18.1 | 31.3 | 38 | 73 | 22.4 | 93.1 | 32.6 | 52.7 | 33.5
CO[C@H]1C[C@@H]2CC[C@@H](C)[C@@](O)(O2)C(=O)C(=O)N2CCCC[C@H]2C(=O)O[C@H]([C@H](C)C[C@@H]2CC[C@@H](OP(C)(C)=O)[C@H](OC)C2)CC(=O)[C@H](C)/C=C(\C)[C@@H](O)[C@@H](OC)C(=O)[C@H](C)C[C@H](C)/C=C/C=C/C=C/1C [Ridaforolimus] (drug 100 nM) | 33.4 | 21.6 | 37.8 | 30.1 | 28.2 | 22 | 17.7 | 33.3 | 19.8 | 6.43 | 35.9 | 23.2 | 39.5 | 49.7 | 37.1
N[C@@H](CSC(c1ccccc1)(c1ccccc1)c1ccccc1)C(=O)O [S-trityl-L-cysteine] (drug 40000 nM) | 2.31 | 4.34 | 9.84 | 13 | 4.25 | -5.53 | -5.14 | 4.09 | -1.05 | 23.9 | 4.16 | 23.3 | 3.17 | 0.988 | 18.1
CC(C)(C)c1cnc(CSc2cnc(NC(=O)C3CCNCC3)s2)o1 [SNS-032] (drug 10000 nM) | 22.4 | 4.07 | 42.4 | 43.3 | 32 | 87.2 | 31.3 | 49.1 | 10.3 | 33.1 | 45.3 | 88.7 | 52.6 | 47.4 | 51.2
CN1CCN(CCOc2cc(OC3CCOCC3)c3c(Nc4c(Cl)ccc5c4OCO5)ncnc3c2)CC1 [Saracatinib] (drug 10000 nM) | 17.5 | -7.13 | -37.6 | -19.4 | 27.9 | 100 | 4.6 | 36.6 | 50.3 | 94.4 | -10.5 | 100 | -17.9 | 25.2 | 15
CC[C@H](CO)Nc1nc(NCc2ccccc2)c2ncn(C(C)C)c2n1 [Seliciclib (Roscovitine)] (drug 10000 nM) | -4.76 | -17.1 | -12.8 | -9.91 | 23.6 | 3.77 | 13.8 | 24.8 | -9.62 | -8.52 | -5.94 | -2.39 | -4.53 | 29 | 17.2
Cn1cnc2c(F)c(Nc3ccc(Br)cc3Cl)c(C(=O)NOCCO)cc21 [Selumetinib  (AZD6244)] (drug 10000 nM) | -3.23 | -12.3 | -8.87 | -4.69 | 10.8 | -2.62 | 11.7 | 19.9 | -0.443 | 29.7 | 2.2 | 21.1 | 3.53 | 13.7 | 16.6
CO[C@H]1C[C@@H]2CC[C@@H](C)[C@@](O)(O2)C(=O)C(=O)N2CCCC[C@H]2C(=O)O[C@H]([C@H](C)C[C@@H]2CC[C@@H](O)[C@H](OC)C2)CC(=O)[C@H](C)/C=C(\C)[C@@H](O)[C@@H](OC)C(=O)[C@H](C)C[C@H](C)/C=C/C=C/C=C/1C [Sirolimus (Rapamycin)] (drug 1000 nM) | 28.5 | 13.8 | 38.1 | 31 | 26.9 | 24.1 | 7.86 | 34.8 | 17.8 | 13.2 | 33.3 | 21.7 | 36.3 | 45.5 | 35.8
C=CCN(/C=C1/C(=O)O[C@H](COC)[C@@]2(C)C1=C(O)C(=O)C1=C2[C@H](OC(C)=O)C[C@]2(C)C(=O)CC[C@@H]12)CC=C [Sonolisib (PX-866)] (drug 10000 nM) | -6.68 | 0.837 | 7.54 | 18.1 | 9.95 | -8.14 | -2.1 | 9.15 | -6.97 | -17.3 | 15.2 | -5.08 | 13.3 | -6.01 | 11.3
CNC(=O)c1cc(Oc2ccc(NC(=O)Nc3ccc(Cl)c(C(F)(F)F)c3)cc2)ccn1 [Sorafenib] (drug 1000 nM) | -13.3 | -7.58 | -7.83 | 4.52 | 4.98 | -4.18 | -2.56 | -11.3 | -8.19 | -5.87 | -2.44 | 12.1 | -2.71 | 4.04 | 5.41
CN1CCN(c2nc(C3=C(c4c[nH]c5ccccc45)C(=O)NC3=O)c3ccccc3n2)CC1 [Sotrastaurin] (drug 10000 nM) | -8.99 | 1.91 | 6.75 | 14.4 | 6.92 | 25.2 | 8.16 | 8.91 | 9.38 | 48.9 | 9.64 | 65.2 | 7.03 | 21.3 | 10
